Results as given in US11419913B2, “Pharmaceutical compositions for inhibiting inflammatory cytokines” (S.I.S. SHULOV INNOVATIVE SCIENCE LTD., priority 2018, dated 2022).
“Also recorded” adds a separate entry of the source. Marks after values point to notes of the source that are not given here. Where a SMILES comes first, the peptide text is derived from it. [ ]: non-standard residue; d: D form. The star is where a group is joined. pGlu = O=C1CC[C@@H](C(=O)O)N1; Octanoyl = CCCCCCCC(=O)*

Key:
[1] = Oxazolone-induced atopic dermatitis mouse model, tolerability and bodyweights; details: for tolerability: 50 mg/kg topical to atopic dermatitis induced mice; for Bodyweights in comparison to the excipient: day 8 to day 28
Procedure: Method: Animals were sensitized by topical administration of oxazolone 2% in ethanol on the back at Day 0 after shaving and depilation of the animals (sensitization phase). Then a challenge was performed one week later by topical administration of oxazolone 1% in ethanol on the back and on right ear every 2 days at 10 occasions namely for total 3 weeks. The tested compounds were applied during the challenge phase every 2 days via the topical route as ready to use cream formulations. The surface of application was the same as for challenge (back+ear). 100 μL were deposited on the back and the back was smoothly massaged. Then, remaining formulation on finger glove was deposited on the internal face of the ear. Every other day, back skin and ears thickness were measured using caliper; and the following clinical scores were recorded from back skin: erythema and scaling. Animals were also weighed every other day (approximate bodyweights of a mouse at startup is about 20 g).
The formulations used for topical administration of the tested compound were: ZEP3 1% cream having pH 7.1 and comprising: Propylene glycol, Polysorbate 80, Edetate Disodium, Silicon dioxide (syloid), Methylparaben, White petrolatum, Isopropyl Myristate, Cetyl Alcohol and Glyceryl Monostearate. ZEP3Na 1% cream having pH 8.0 and comprising: Propylene glycol, Polysorbate 80, Edetate Disodium, Silicon dioxide (syloid), Methylparaben, White petrolatum, Isopropyl Myristate, Cetyl Alcohol and Glyceryl Monostearate. ZEP4 1% cream having pH 4.5 and comprising: Propylene glycol, Glycerin, Polysorbate 80, EDTA Disodium, Xanthan Gum, Silicon dioxide (syloid), Methylparaben, White petrolatum, Isopropyl Myristate, Cetyl Alcohol, Stearyl Alcohol, and Glyceryl Monostearate (kolliwax).

[2] = test system: TNF alpha; assay: TNF alpha secretion in LPS treated human keratinocytes (ELISA); format: cell-based; details: for TNF alpha levels / production in LPS treated human keratinocytes (in words): compared with cells stimulated with LPS alone; for TNFα: ZEP3Na without DMSO; for Fold Change: refers to TNF-α concentration in sample #2; for % Inhibition: vs corresponding control group without peptide
Procedure: Methods: SCCE020 cells (EpiGRO™ Human Epidermal Keratinocytes) were grown in complete growth medium (EpiGRO™ Human Keratinocytes Complete Medium; Millipore Cat. #SCMK001) for 4 passages. At passage 5, cells were seeded (3*10^5 cells/well) in triplicates in a volume of 1 ml complete growth medium per well. Additional 3 control wells contained only medium without cells. Upon adherence, cell medium was replaced by basal medium containing L-Glutamine without supplements (starvation medium) and cells were starved overnight. The next day, 24 hours after seeding, the cells were treated with ZEP3 or ZEP3Na or appropriate diluent (PBS or DMSO). After 4 hours of incubation, LPS (from E. Coli 055: B5; Sigma Cat. #L6529-1MG) was added to the wells in final concentration of 20 or 30 μg/ml.
Cells were incubated for 24 hours in tissue culture incubator. After collecting cell supernatants from all wells, cells from treatment groups: 1, 2, 3, 8, 9, 10, 13, 14 (without DMSO groups) were pelleted and stored at −80° C. for further analyses. The cells were collected from as following: upon supernatants collection, the wells were rinsed with trypsin, then incubated with trypsin until they detached from the plate surface, centrifuged, washed with PBS and stored as a cell pellet. TNF-α concentration in the supernatants was measured by ELISA (Quantikine HS ELISA; R&D Systems Cat. #HSTA00D), in 5 replicates.
TNF alpha concentration in the samples was calculated according to the standard curve trend line equation: =0.063x+0.1718. Percent inhibition of TNF alpha production was calculated in each treatment group in comparison to the corresponding control group (same conditions, without peptide).

[3] = test system: TNF alpha; assay: Expression of TNF alpha by B6 macrophage cells treated with LPS and palmitic acid; format: cell-based, mouse
Procedure: Macrophages originating from C57BL/6 mice were cultured at a density of 200,000 cells/mL in a 24-well plate (500 μl wells) and incubated at 37° C. and 5% CO2 overnight. Following incubation, culture media in certain experimental groups were replaced with fresh media containing 100 ng/mL LPS, followed by three hours incubation. Then, the media (LPS-containing or LPS-free) in certain experimental groups were replaced with fresh media containing ZEP4 at concentrations ranging from 3.125 to 100 μg/ml, followed by one-hour incubation. Next, palmitic acid (PA, 200 μM) was added to the appropriate wells and the plates were incubated for additional 24 hours, then the amount of TNF alpha in each well was measured. Reduction in TNF alpha production in the treatment groups was calculated relative to cells treated with LPS and PA (CLP200).
Macrophages originating from C57BL/6 mice were cultured at a density of 200,000 cells/mL in a 24-well plate (500 μl wells) and incubated at 37° C. and 5% CO2 overnight. Following incubation, media were replaced with fresh media containing 100 ng/mL LPS, followed by three hours incubation. The LPS-containing media in the treatment groups were then replaced with fresh media containing ZEP4 at 50 μg/ml, followed by one-hour incubation. Then, aliquots of palmitic acid (100, 200 or 400 μM) were added to appropriate wells. The plates were incubated for additional 24 hour and the amount of TNF alpha in each well was measured. Reduction in TNF alpha production in the treatment groups was calculated relative to cells treated with LPS and PA, according to the PA concentration.
Macrophage cells originating from C57BL/6 mice were cultured at a density of 200,000 cells/mL in a 24-well plate (500 μl wells) and incubated at 37° C. and 5% CO2 overnight. Following incubation, media in certain experimental groups were replaced with fresh media containing 100 ng/mL LPS, followed by three hours incubation. Then, the media (LPS-containing or LPS-free) in certain experimental groups were replaced with fresh media containing ZEP3 at a concentration ranging from 3.125 to 100 μg/ml, followed by one-hour incubation. Next, palmitic acid (200 μM) aliquots were added to the appropriate wells and the plates were incubated for additional 24 hours, then the amount of TNF alpha in each well was measured. Reduction in TNF alpha production in the treatment groups was calculated relative to cells treated with LPS and PA.

[4] = test system: oxazolone-induced atopic dermatitis (AD) mouse models; assay: Oxazolone-induced atopic dermatitis mouse model, clinical lesions; format: in vivo; details: for Scaling: period of reduction: 1% cream topical, 50 mg/kg, scaling score of back skin; for Right ear thickness, significant difference in comparison to control: days 20, 22 and 28; for Erythema scoring: days with a significant difference / total score: days with significant difference: vs control group
Procedure: The effect of topical administration of ZEP3 (SEQ ID NO: 1), and its sodium salt form (ZEP3Na), and ZEP4 (SEQ ID NO: 2) was evaluated in oxazolone-induced atopic dermatitis (AD) mouse models. This model is widely used and well described in literature (Avci et al. 2013 Expert Opin Drug Discov. 8, 331-355; Petersen T. K. 2006, Basic Clin. Pharmacol. Toxicol. 99, 104-115) as an accepted animal model for evaluating drugs for AD therapy in humans.

[5] = test system: IL-1beta; assay: Expression of IL-1 beta by Nigericin-activated macrophages; format: cell-based, mouse; design: IL-1beta: unit not given here; details: ZEP4 50 μg/mL, LPS 100 ng/mL, Nigericin 20 mM
Procedure: Macrophage cells originating from C7BL/6 mice were cultured at a density of 200,000 cells/mL in a 24-well plate (500 μl wells) and incubated at 37° C. and […] overnight. Following the overnight incubation, media were replaced with fresh media containing 100 ng/mL LPS. Three hours later, the LPS-containing media were replaced with fresh media containing 50 μg/ml ZEP4 to treatment wells. Following one-hour incubation, Nigericin (20 mM) aliquots were added to the ZEP4 treated and LPS control wells. The plates were incubated for additional 24 hour and the amount of IL-1beta in each well was measured. Reduction in […] production in the treatment group was calculated relative to cells treated with LPS and nigericin (LPS+N).

[6] = peptide 0.2 mg/ml, LPS 20 μg/ml
[7] = peptide 0.2 mg/ml, LPS 30 μg/ml
[8] = peptide 0.4 mg/ml, LPS 20 μg/ml
[9] = peptide 3.125 μg/ml, LPS 100 ng/mL, palmitic acid 200 μM, 24 hours
[10] = peptide 3.125 μg/ml, LPS 100 ng/mL, palmitic acid 200 μM, relative to cells treated with LPS and PA
[11] = peptide 6.25 μg/ml, LPS 100 ng/mL, palmitic acid 200 μM, 24 hours
[12] = peptide 6.25 μg/ml, LPS 100 ng/mL, palmitic acid 200 μM, relative to cells treated with LPS and PA
[13] = peptide 12.5 μg/ml, LPS 100 ng/mL, palmitic acid 200 μM, 24 hours
[14] = peptide 12.5 μg/ml, LPS 100 ng/mL, palmitic acid 200 μM, relative to cells treated with LPS and PA
[15] = peptide 25 μg/ml, LPS 100 ng/mL, palmitic acid 200 μM, 24 hours
[16] = peptide 25 μg/ml, LPS 100 ng/mL, palmitic acid 200 μM, relative to cells treated with LPS and PA
[17] = peptide 50 μg/ml, LPS 100 ng/mL, palmitic acid 200 μM, 24 hours
[18] = peptide 50 μg/ml, LPS 100 ng/mL, palmitic acid 200 μM, relative to cells treated with LPS and PA
[19] = peptide 100 μg/ml, LPS 100 ng/mL, palmitic acid 200 μM, 24 hours
[20] = peptide 100 μg/ml, LPS 100 ng/mL, palmitic acid 200 μM, relative to cells treated with LPS and PA
[21] = peptide control: peptide 100 μg/ml, no LPS, no palmitic acid

SMILES: CCCCCCCC(=O)NCCCC[C@H](NC(=O)[C@H](Cc1c[nH]c2ccccc12)NC(=O)[C@H](CC(N)=O)NC(=O)[C@@H]1CCC(=O)N1)C(=O)O [ZEP3, pGlu-Asn-Trp-Lys(Octanoyl)-OH] ([pGlu]NWK(Octanoyl)-OH)
- tolerability [1]: well tolerated
- Bodyweights in comparison to the excipient [1]: behaved normally
- TNF alpha levels / production in LPS treated human keratinocytes (in words) [2]: effectively diminished; also recorded: dose dependent inhibition
- TNFα ([2]; peptide 0.02 mg/ml, LPS 20 μg/ml, ZEP3 in 0.025% DMSO): 9.6 pg/mL
- Fold Change ([2]; peptide 0.02 mg/ml, LPS 20 μg/ml): 3.4
- TNFα ([2]; peptide 0.2 mg/ml, LPS 20 μg/ml, ZEP3 in 0.05% DMSO): 6.0 pg/mL
- Fold Change [2, 6]: 2.1
- % Inhibition [2, 6]: 32%
- TNFα ([2]; peptide 0.2 mg/ml, LPS 30 μg/ml, ZEP3 in 0.10% DMSO): 17.3 pg/mL
- Fold Change [2, 7]: 6.1
- % Inhibition [2, 7]: 20%
- TNFα ([2]; peptide 0.4 mg/ml, LPS 20 μg/ml, ZEP3 in 0.10% DMSO): 4.6 pg/mL
- Fold Change [2, 8]: 1.6
- % Inhibition [2, 8]: 48%
- ED50 (reduction of TNF alpha expression) ([3]; macrophage cells treated with LPS 100 ng/mL and palmitic acid 200 μM, estimated): 51.94 µg/mL
- TNF alpha [3, 9]: 41.98 pg/mL
- % reduction of TNF alpha [3, 10]: 82.9%
- TNF alpha [3, 11]: 75.52 pg/mL
- % reduction of TNF alpha [3, 12]: 69.2%
- TNF alpha [3, 13]: 74.83 pg/mL
- % reduction of TNF alpha [3, 14]: 69.5%
- TNF alpha [3, 15]: 61.57 pg/mL
- % reduction of TNF alpha [3, 16]: 74.9%
- TNF alpha [3, 17]: 106.75 pg/mL
- % reduction of TNF alpha [3, 18]: 56.4%
- TNF alpha [3, 19]: 176.22 pg/mL
- % reduction of TNF alpha [3, 20]: 28.1%
- TNF alpha [3, 21]: 10.44 pg/mL
- Scaling: period of reduction [4]: reduced from days 18 to 24
- Significant difference on back thickness vs. control group 1 ([4]; day 20): −25.5%
- Significant difference on back thickness vs. control group 1 ([4]; day 24): −16.6%
- Right ear thickness, significant difference in comparison to control [4]: −10.1 to −18.0%
- Erythema scoring: days with a significant difference [4]: days 22 and 24
- total score: days with significant difference [4]: days 20, 24 and 28

SMILES: C[C@@H](O)[C@H](NC(=O)[C@H](Cc1c[nH]c2ccccc12)NC(=O)[C@H](CC(N)=O)NC(=O)[C@@H]1CCC(=O)N1)C(=O)O [ZEP4, pGlu-Asn-Trp-Thr-OH] (HELM PEPTIDE1{[Glp].N.W.T}$$$$V2.0)
- IL-1beta ([5]; 24 hour): 157.1
- % reduction of IL-1beta ([5]; relative to LPS and nigericin (LPS+N)): 53.8%
- tolerability [1]: well tolerated
- Bodyweights in comparison to the excipient [1]: behaved normally
- TNF alpha levels / production in LPS treated human keratinocytes (in words) [2]: effectively diminished
- TNF alpha ([3]; Table 2: ZEP4 50 μg/ml, LPS 100 ng/ml, palmitic acid 100 μM): 133.93 pg/mL
- % reduction of TNF alpha ([3]; Table 2: ZEP4 50 μg/ml, LPS 100 ng/ml, palmitic acid 100 μM, relative to LPS and PA 100 μM): 67.8**** %
- TNF alpha ([3]; Table 2: ZEP4 50 μg/ml, LPS 100 ng/ml, palmitic acid 200 μM): 167.52 pg/mL
- % reduction of TNF alpha ([3]; Table 2: ZEP4 50 μg/ml, LPS 100 ng/ml, palmitic acid 200 μM, relative to LPS and PA 200 μM): 63.7**** %
- TNF alpha ([3]; Table 2: ZEP4 50 μg/ml, LPS 100 ng/ml, palmitic acid 400 μM): 252.177 pg/mL
- % reduction of TNF alpha ([3]; Table 2: ZEP4 50 μg/ml, LPS 100 ng/ml, palmitic acid 400 μM, relative to LPS and PA 400 μM): 57.5**** %
- TNF alpha [3, 9]: 97.79 pg/mL
- % reduction of TNF alpha [3, 10]: 70.6%
- TNF alpha [3, 11]: 89.83 pg/mL
- % reduction of TNF alpha [3, 12]: 73.0%
- TNF alpha [3, 13]: 93.12 pg/mL
- % reduction of TNF alpha [3, 14]: 72.0%
- TNF alpha [3, 15]: 115.58 pg/mL
- % reduction of TNF alpha [3, 16]: 65.2%
- TNF alpha [3, 17]: 76.23 pg/mL
- % reduction of TNF alpha [3, 18]: 77.0%
- TNF alpha [3, 19]: 211.68 pg/mL
- % reduction of TNF alpha [3, 20]: 36.3%
- TNF alpha [3, 21]: 0 pg/mL
- Scaling: period of reduction [4]: from days 14 to 24
- Significant difference on back thickness vs. control group 1 ([4]; day 14): −13.5%
- Right ear thickness, significant difference in comparison to control [4]: −12.3 to −16.0%
- Erythema scoring: days with a significant difference [4]: days 12, 16, 22 and 24
- total score: days with significant difference [4]: days 12-20, 24 and 28
